In patent US20100217003A1, “1,2,3,4-TETRAHYDROISOQUINOLINE DERIVATIVES HAVING EFFECTS OF PREVENTING AND TREATING DEGENERATIVE AND INFLAMMATORY DISEASES” (priority 2006, published 2010) one finds BH4 production data, which are given here for 1 molecule.

For this test, the system named is activated microglial cell. In words: BH4 production in an activated microglial cell. The class given is cell-based. Particulars: activated microglial cell (FIG. 12).

The structures appear in SMILES notation.

Take `COc1cc2c(cc1O)CNCC2` [HMTIQ, 7-hydroxy-6-methoxy-1,2,3,4-tetrahydroisoquinoline]: the BH4 production entry is reported as “inhibitory effect”.
